Assay results as given in patent US7345070B2, “Peroxisome proliferator activated receptor agonists” (Eli Lilly and Company, priority 2000, dated 2008).
Blank lines part the entries; values can stand above or below the compound they belong to.

Assays:
[1] = biological target: T1, huPPARγ (Homo sapiens, UniProt P37231); experiment: Cotransfection assay in CV-1 cells, huPPARγ; assay type: cell-based; parameters: Appropriate PPARs and RXRα were constitutively expressed using plasmids containing the CMV promoter; expressed in transfected cells; host or cells: CV-1 cells; details: AOX PPRE luciferase reporter, relative to PPARγ agonist reference molecule, read-out: huPPARγ CTF Efficacy
T1 sequence (P37231 1-505): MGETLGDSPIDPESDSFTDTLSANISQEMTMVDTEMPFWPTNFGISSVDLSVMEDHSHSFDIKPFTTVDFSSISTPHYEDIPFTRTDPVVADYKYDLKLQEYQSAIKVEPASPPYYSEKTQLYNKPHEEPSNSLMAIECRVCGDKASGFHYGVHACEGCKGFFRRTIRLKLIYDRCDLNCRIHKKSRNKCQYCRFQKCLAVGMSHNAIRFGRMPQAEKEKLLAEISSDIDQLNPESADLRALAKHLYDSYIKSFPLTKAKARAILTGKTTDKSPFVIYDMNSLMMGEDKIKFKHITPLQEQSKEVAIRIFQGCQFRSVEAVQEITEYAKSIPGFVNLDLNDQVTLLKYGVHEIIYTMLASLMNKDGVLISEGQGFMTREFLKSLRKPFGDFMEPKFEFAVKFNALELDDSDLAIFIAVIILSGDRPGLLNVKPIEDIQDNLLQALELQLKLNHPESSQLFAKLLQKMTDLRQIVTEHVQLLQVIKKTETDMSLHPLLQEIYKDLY
T1 sequence (P19793 1-462 partner): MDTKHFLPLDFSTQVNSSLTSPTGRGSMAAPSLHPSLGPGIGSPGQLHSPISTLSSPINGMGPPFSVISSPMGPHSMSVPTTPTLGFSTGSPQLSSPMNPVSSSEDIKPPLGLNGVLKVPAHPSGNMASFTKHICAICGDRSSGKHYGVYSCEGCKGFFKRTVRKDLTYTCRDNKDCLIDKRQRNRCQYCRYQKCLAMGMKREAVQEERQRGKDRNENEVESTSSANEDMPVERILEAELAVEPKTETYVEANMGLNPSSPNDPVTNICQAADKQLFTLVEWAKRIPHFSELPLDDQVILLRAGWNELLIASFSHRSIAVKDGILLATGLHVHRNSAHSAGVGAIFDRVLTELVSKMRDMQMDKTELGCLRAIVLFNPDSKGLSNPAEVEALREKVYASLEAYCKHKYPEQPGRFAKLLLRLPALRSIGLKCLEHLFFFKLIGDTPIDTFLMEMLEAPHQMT
Procedure: (§1) DNA-dependent binding (ABCD binding) was carried out using SPA technology with PPAR receptors. Tritium-labeled PPARα and PPARγ agonists were used as radioligands for generating displacement curves and IC50 values with compounds of the invention. Cotransfection assays were carried out in CV-1 cells. The reporter plasmid contained an acylCoA oxidase (AOX) PPRE and TK promoter upstream of the luciferase reporter cDNA. Appropriate PPARs and RXRα were constitutively expressed using plasmids containing the CMV promoter. […] In order to eliminate such interference, a GAL4 chimeric system was used in which the DNA binding domain of the transfected PPAR was replaced by that of GAL4, and the GAL4 response element was utilized in place of the AOX PPRE. Cotransfection efficacy was determined relative to PPARα agonist and PPARγ agonist reference molecules. Efficacies were determined by computer fit to a concentration-response curve, or in some cases at a single high concentration of agonist (10 μM). For binding or cotransfection studies with receptors other than PPARs, similar assays were carried out using appropriate ligands, receptors, reporter constructs, etc., for that particular receptor.
(§2) These studies were carried out to evaluate the ability of compounds of the invention to bind to and/or activate various nuclear transcription factors, particularly huPPARα (“hu” indicates “human”) and huPPARγ. These studies provide in vitro data concerning efficacy and selectivity of compounds of the invention. Furthermore, binding and cotransfection data for compounds of the invention were compared with corresponding data for marketed compounds that act on either huPPARα or huPPARγ.

[2] = biological target: T2, huPPARα (Homo sapiens, UniProt Q07869); experiment: DNA-dependent binding (ABCD binding) using SPA technology, huPPARα; details: SPA displacement of tritium-labeled PPARα agonist radioligand
T2 sequence (Q07869 1-468): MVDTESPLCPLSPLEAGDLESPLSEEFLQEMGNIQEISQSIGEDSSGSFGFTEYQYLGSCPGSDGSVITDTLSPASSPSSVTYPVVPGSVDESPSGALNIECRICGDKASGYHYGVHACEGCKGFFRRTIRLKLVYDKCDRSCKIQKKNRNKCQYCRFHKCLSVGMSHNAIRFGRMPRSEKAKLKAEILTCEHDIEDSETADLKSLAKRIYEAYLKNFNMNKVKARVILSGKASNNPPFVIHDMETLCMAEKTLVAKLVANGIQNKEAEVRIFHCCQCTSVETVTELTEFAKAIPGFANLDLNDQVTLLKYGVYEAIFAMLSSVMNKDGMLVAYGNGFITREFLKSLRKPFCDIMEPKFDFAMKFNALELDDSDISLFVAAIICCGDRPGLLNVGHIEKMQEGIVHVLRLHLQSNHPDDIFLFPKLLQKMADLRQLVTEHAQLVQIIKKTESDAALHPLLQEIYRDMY
T2 sequence (P19793 1-462 partner): T1 sequence (P19793 1-462 partner)
Procedure: as §1, §2

Structure (SMILES): Cc1oc(C2CCCCC2)nc1CCOc1ccc(CC(C)(Oc2ccc(F)cc2)C(=O)O)cc1 (stereo not drawn) [Example 65, 3-{4-[2-(2-Cyclohexyl-5-methyl-oxazol-4-yl)-ethoxy]-phenyl}-2-(4-fluoro-phenoxy)-2-methyl-propionic acid]
- Emax [1]: 24%
- IC50 [2]: 71 nM

Structure (SMILES): Cc1oc(-c2cccs2)nc1CCOc1ccc(CC(C)(Oc2cccc(C(F)(F)F)c2)C(=O)O)cc1 (stereo not drawn) [Example 71, 2-Methyl-3-{4-[2-(5-methyl-2-thiophen-2-yl-oxazol-4-yl)-ethoxy]-phenyl}-2-(3-trifluoromethyl-phenoxy)-propionic acid]
- Emax [1]: 50%
- IC50 [2]: 78 nM

Structure (SMILES): COc1cccc(OC(C)(Cc2ccc(OCCc3nc(C4CCCCC4)oc3C)cc2)C(=O)O)c1 (stereo not drawn) [Example 76, 3-{4-[2-(2-Cyclohexyl-5-methyl-oxazol-4-yl)-ethoxy]-phenyl}-2-(3-methoxy-phenoxy)-2-methyl-propionic acid]
- Emax [1]: 24%
- IC50 [2]: 76 nM

Structure (SMILES): Cc1oc(-c2ccccc2)nc1CCOc1ccc(CC(C)(Oc2ccc3c(c2)OCO3)C(=O)O)cc1 (stereo not drawn) [Example 78, 2-(Benzo[1,3]dioxol-5-yloxy)-2-methyl-3-{4-[2-(5-methyl-2-phenyl-oxazol-4-yl)-ethoxy]-phenyl}-propionic acid]
- Emax [1]: 17%
- IC50 [2]: 75 nM

Structure (SMILES): Cc1oc(C2CCCCC2)nc1CCOc1ccc(CC(C)(Oc2ccc3c(c2)OCO3)C(=O)O)cc1 (stereo not drawn) [Example 80, 2-(Benzo[1,3]dioxol-5-yloxy)-3-{4-[2-(2-cyclohexyl-5-methyl-oxazol-4-yl)-ethoxy]-phenyl}-2-methyl-propionic acid]
- Emax [1]: 30%
- IC50 [2]: 76 nM

Structure (SMILES): Cc1oc(-c2ccccc2)nc1CCCc1ccc(CC(C)(Oc2ccccc2)C(=O)O)s1 (stereo not drawn) [Example 91, 2-Methyl-3-{5-[3-(5-methyl-2-phenyl-oxazol-4-yl)-propyl]-thiophen-2-yl}-2-phenoxy-propionic acid]
- Emax [1]: 62%
- IC50 [2]: 215 nM

Now those with a lower IC50 [2], led by results:

- Emax [1]: 11%
- IC50 [2]: 67 nM
Structure (SMILES): Cc1oc(-c2cccs2)nc1CCOc1ccc(CC(C)(Oc2ccc(F)cc2)C(=O)O)cc1 (stereo not drawn) [Example 64, 2-(4-Fluoro-phenoxy)-2-methyl-3-{4-[2-(5-methyl-2-thiophen-2-yl-oxazol-4-yl)-ethoxy]-phenyl}-propionic acid]

- Emax [1]: 11%
- IC50 [2]: 61 nM
Structure (SMILES): Cc1oc(C2(C)CCCCC2)nc1CCOc1ccc(C[C@](C)(Oc2ccc(F)cc2)C(=O)O)cc1 [Example 67, (S)-2-(4-Fluoro-phenoxy)-2-methyl-3-(4-{2-[5-methyl-2-(1-methyl-cyclohexyl)-oxazol-4-yl]-ethoxy}-phenyl)-propionic acid]

- Emax [1]: 7%
- IC50 [2]: 55 nM
Structure (SMILES): Cc1oc(CCc2ccccc2)nc1CCOc1ccc(C[C@](C)(Oc2ccccc2)C(=O)O)cc1 [Example 86, (S)-2-Methyl-3-{4-[2-(5-methyl-2-phenethyl-oxazol-4-yl)-ethoxy]-phenyl}-2-phenoxy-propionic acid]
